Activity calls are given as the source filed them. The rule behind the calls is not given here.
Assays:
[1] = molecular target: T1, Serine/threonine-protein kinase D1 (Homo sapiens) (UniProt Q15139); experiment: Inhibition of PRKD1 (unknown origin) at 1 uM by Ambit Kinomescan binding assay relative to control
T1 sequence (whole entry): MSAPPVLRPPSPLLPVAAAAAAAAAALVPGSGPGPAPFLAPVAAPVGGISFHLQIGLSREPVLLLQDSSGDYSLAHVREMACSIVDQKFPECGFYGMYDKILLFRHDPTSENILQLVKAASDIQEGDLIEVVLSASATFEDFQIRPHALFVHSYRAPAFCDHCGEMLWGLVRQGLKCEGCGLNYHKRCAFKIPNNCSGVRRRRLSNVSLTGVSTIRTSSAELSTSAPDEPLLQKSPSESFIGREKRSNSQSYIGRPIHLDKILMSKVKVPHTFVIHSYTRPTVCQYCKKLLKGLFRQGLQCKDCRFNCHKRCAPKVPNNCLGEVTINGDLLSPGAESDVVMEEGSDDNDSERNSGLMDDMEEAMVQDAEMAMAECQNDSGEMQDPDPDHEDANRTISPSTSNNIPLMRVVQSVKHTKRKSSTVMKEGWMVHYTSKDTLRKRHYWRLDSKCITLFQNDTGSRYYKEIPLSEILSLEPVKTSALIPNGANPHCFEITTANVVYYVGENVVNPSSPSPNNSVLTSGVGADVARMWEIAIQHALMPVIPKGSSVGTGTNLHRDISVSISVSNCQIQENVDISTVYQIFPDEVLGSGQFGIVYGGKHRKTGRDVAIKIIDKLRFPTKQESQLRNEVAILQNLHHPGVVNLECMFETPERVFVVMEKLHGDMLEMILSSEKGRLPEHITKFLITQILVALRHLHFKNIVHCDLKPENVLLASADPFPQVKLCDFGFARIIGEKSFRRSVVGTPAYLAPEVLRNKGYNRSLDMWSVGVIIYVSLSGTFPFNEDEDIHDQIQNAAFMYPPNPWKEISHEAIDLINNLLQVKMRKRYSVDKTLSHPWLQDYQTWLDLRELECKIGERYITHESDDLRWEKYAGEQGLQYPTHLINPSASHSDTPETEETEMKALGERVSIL

[2] = molecular target: T2, Dual specificity mitogen-activated protein kinase kinase 5 (Homo sapiens) (UniProt Q13163); experiment: Inhibition of MEK5 (unknown origin) at 1 uM by Ambit Kinomescan binding assay relative to control; values are per cent of control
T2 sequence (whole entry): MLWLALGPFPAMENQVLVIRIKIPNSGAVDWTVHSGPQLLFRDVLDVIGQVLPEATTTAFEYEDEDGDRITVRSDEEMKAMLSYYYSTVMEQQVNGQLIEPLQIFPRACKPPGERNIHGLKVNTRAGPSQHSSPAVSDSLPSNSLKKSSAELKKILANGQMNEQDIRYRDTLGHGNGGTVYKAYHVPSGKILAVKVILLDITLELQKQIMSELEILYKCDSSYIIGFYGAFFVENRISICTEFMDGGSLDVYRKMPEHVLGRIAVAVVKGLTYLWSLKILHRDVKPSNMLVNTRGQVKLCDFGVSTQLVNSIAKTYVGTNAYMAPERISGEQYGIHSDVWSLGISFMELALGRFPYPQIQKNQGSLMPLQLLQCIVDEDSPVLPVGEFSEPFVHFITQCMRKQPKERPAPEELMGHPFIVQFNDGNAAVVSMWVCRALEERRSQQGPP

[3] = test system: Receptor-type tyrosine-protein kinase FLT3 (Homo sapiens), P36888 [UNDEFINED MUTATION]; experiment: Inhibition of FLT3 ITD mutant (unknown origin) at 1 uM by Ambit Kinomescan binding assay relative to control; values are per cent of control
[4] = molecular target: Serine/threonine-protein kinase Nek4 (Homo sapiens) (UniProt P51957); experiment: Inhibition of NEK4 (unknown origin) at 1 uM by Ambit Kinomescan binding assay relative to control; values are per cent of control
Serine/threonine-protein kinase Nek4 (Homo sapiens), sequence (P51957 whole entry, looked up): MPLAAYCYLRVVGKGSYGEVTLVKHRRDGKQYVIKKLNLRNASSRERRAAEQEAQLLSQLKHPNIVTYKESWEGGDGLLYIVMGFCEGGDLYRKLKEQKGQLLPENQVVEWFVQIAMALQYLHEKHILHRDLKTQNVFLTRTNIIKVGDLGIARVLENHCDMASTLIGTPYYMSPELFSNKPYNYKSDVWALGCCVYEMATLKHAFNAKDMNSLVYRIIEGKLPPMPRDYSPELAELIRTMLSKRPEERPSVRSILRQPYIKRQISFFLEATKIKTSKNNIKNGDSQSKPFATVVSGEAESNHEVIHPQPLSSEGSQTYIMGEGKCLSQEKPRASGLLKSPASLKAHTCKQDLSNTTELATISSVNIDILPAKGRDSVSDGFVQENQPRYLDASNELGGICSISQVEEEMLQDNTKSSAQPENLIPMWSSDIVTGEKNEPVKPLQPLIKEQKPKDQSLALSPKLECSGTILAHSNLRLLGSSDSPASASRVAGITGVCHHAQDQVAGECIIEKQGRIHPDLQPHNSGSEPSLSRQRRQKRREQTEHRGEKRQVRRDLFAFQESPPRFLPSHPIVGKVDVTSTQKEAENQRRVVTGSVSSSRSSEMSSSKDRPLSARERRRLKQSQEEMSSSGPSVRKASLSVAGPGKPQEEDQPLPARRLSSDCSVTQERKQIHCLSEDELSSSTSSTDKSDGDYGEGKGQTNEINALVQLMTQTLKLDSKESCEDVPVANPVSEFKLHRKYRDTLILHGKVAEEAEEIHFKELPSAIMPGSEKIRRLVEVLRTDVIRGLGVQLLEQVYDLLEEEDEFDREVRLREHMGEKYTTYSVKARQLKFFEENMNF

[5] = test system: Epidermal growth factor receptor (Homo sapiens), P00533 [UNDEFINED MUTATION]; experiment: Inhibition of EGFR S752-I759del mutant (unknown origin) at 1 uM by Ambit Kinomescan binding assay relative to control
Epidermal growth factor receptor (Homo sapiens), P00533 [UNDEFINED MUTATION], sequence (P00533 whole entry, looked up, stated change not applied): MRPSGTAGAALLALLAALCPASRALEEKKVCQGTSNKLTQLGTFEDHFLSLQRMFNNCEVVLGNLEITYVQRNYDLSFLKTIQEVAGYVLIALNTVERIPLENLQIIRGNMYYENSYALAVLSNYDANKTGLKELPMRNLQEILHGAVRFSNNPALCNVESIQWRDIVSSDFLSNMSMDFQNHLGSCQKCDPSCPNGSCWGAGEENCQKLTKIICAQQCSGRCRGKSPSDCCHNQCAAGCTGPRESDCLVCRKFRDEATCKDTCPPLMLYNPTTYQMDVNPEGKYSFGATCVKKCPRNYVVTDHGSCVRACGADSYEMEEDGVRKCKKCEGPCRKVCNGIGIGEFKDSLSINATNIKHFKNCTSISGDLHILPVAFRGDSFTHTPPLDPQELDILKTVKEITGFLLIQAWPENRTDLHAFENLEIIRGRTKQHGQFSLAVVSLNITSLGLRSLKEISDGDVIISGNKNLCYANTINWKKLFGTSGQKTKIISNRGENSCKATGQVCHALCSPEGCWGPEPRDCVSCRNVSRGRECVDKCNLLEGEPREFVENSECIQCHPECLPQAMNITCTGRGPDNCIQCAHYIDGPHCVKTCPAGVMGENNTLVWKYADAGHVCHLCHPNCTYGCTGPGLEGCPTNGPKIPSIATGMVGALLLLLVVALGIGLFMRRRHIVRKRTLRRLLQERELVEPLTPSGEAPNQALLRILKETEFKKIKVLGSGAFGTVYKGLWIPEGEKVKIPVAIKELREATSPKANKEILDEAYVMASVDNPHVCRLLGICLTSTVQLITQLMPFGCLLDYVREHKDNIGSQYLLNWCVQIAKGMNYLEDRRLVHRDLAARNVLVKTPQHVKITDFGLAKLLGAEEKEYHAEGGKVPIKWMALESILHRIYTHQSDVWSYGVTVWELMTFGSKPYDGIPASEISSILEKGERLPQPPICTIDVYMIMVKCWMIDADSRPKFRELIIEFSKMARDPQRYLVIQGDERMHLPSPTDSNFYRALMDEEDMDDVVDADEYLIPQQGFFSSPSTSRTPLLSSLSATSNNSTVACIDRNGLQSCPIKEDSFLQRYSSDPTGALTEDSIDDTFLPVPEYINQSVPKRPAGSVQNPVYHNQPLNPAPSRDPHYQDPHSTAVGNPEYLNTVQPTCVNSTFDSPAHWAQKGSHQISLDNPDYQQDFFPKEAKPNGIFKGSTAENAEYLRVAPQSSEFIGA

[6] = molecular target: Activin receptor type-1-like (Homo sapiens) (UniProt P37023); experiment: Inhibition of ACVRL1 (unknown origin) at 1 uM by Ambit Kinomescan binding assay relative to control
Activin receptor type-1-like (Homo sapiens), sequence (P37023 whole entry, canonical isoform): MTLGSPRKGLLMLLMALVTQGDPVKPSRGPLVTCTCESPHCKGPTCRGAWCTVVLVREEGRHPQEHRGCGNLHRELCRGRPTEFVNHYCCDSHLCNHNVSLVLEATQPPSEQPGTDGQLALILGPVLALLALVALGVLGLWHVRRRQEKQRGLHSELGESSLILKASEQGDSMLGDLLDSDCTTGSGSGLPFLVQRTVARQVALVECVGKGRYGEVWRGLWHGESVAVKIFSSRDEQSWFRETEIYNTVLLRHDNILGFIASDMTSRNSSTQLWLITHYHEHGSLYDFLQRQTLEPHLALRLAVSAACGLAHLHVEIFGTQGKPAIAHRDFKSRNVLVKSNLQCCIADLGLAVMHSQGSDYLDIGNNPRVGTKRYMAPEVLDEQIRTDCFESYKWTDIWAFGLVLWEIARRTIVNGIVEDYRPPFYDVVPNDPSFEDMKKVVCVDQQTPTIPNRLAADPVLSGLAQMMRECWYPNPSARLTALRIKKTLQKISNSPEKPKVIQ

[7] = molecular target: Casein kinase I isoform gamma-2 (Homo sapiens) (UniProt P78368); experiment: Inhibition of CSNK1G2 (unknown origin) at 10 uM by Ambit Kinomescan binding assay
Casein kinase I isoform gamma-2 (Homo sapiens), sequence (P78368 whole entry, looked up, canonical isoform): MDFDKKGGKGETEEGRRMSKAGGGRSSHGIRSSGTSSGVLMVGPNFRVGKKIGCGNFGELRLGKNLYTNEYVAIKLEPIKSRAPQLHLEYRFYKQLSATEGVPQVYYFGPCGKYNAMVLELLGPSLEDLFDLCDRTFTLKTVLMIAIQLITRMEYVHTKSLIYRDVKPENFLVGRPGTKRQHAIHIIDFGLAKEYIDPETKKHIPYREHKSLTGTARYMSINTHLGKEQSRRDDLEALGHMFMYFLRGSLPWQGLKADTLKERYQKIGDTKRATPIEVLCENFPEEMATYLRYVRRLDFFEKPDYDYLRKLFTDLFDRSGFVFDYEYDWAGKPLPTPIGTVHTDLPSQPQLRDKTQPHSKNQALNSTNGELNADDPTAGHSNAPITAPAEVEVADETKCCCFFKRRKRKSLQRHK

[8] = molecular target: Cyclin-dependent kinase 11B (Homo sapiens) (UniProt P21127); experiment: Inhibition of CDC2L1 (unknown origin) at 10 uM by Ambit Kinomescan binding assay relative to control; values are per cent of control
[9] = molecular target: Tyrosine-protein kinase JAK1 (Homo sapiens) (UniProt P23458); experiment: Inhibition of JAK1 domain2 Lys1 labeling site in human A-375 cells at 0.5 uM by KiNativ Profiling analysis relative to control; type: cell-based
[10] = molecular target: Peripheral plasma membrane protein CASK (Homo sapiens) (UniProt O14936); experiment: Inhibition of CASK Lys1 labeling site in human A-375 cells at 0.5 uM by KiNativ Profiling analysis relative to control
Peripheral plasma membrane protein CASK (Homo sapiens), sequence (O14936 whole entry, looked up): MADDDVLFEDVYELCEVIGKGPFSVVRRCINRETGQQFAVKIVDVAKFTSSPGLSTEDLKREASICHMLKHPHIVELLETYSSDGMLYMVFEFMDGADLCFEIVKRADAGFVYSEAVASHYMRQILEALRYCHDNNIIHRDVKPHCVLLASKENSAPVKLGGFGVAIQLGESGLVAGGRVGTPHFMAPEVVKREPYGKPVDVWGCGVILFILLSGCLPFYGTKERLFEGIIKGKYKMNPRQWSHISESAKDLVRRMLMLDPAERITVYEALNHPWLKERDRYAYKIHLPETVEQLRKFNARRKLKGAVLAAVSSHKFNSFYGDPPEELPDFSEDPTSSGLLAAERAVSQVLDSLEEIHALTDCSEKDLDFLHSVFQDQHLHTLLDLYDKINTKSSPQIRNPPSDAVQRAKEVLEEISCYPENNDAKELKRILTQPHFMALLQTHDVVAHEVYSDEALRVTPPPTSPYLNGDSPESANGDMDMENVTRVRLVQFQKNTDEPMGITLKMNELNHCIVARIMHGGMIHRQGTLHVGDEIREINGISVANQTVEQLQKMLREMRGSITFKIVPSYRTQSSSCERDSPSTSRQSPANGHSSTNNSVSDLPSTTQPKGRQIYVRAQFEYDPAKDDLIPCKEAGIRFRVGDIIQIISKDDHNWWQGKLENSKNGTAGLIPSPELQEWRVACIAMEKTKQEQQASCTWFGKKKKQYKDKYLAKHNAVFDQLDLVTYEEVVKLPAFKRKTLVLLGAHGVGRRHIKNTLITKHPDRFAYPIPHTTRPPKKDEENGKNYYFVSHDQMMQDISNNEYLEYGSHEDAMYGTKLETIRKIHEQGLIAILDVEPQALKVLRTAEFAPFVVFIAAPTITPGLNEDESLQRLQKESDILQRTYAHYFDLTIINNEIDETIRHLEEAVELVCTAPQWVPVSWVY

[11] = molecular target: Serine/threonine-protein kinase 38 (Homo sapiens) (UniProt Q15208); experiment: Inhibition of NDR1 ACT labeling site in human A-375 cells at 0.5 uM by KiNativ Profiling analysis relative to control; type: cell-based
Serine/threonine-protein kinase 38 (Homo sapiens), sequence (Q15208 2-465 limits assumed): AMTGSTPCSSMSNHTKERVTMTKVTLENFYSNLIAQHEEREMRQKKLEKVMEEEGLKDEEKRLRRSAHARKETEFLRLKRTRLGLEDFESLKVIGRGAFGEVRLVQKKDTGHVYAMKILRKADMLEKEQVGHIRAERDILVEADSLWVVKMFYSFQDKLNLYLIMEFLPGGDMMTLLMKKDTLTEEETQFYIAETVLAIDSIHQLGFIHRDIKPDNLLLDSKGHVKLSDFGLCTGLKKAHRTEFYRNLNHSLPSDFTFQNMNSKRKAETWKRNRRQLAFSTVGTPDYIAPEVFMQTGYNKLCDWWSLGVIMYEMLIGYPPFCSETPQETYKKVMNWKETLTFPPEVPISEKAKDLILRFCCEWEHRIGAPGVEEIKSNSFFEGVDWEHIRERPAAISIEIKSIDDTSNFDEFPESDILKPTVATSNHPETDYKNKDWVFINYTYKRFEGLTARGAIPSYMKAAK

[12] = test system: Epidermal growth factor receptor (Homo sapiens), P00533 [G719S]; experiment: Inhibition of EGFR G719S mutant (unknown origin) at 10 uM by Ambit Kinomescan binding assay relative to control
[13] = molecular target: Protein kinase C alpha type (Homo sapiens) (UniProt P17252); experiment: Inhibition of PKCa Lys2 labeling site in human Huh-7 cells at 1 uM by KiNativ Profiling analysis relative to control; type: cell-based
[14] = molecular target: Phosphatidylinositol 4-kinase beta (Homo sapiens) (UniProt Q9UBF8); experiment: Inhibition of PI4KB ATP labeling site harbouring VPHTQAVVLNSKDKAPYLIYVEVLECENFDTTSVPARIPENR in human Huh-7 cell lysate at 1 uM by KiNativ Profiling analysis relative to control; type: subcellular
[15] = molecular target: Calcium/calmodulin-dependent protein kinase type II subunit beta (Homo sapiens) (UniProt Q13554); experiment: Inhibition of CaMK2b Lys2 labeling site in human Huh-7 cells at 1 uM by KiNativ Profiling analysis relative to control; type: cell-based
Calcium/calmodulin-dependent protein kinase type II subunit beta (Homo sapiens), sequence (Q13554 whole entry): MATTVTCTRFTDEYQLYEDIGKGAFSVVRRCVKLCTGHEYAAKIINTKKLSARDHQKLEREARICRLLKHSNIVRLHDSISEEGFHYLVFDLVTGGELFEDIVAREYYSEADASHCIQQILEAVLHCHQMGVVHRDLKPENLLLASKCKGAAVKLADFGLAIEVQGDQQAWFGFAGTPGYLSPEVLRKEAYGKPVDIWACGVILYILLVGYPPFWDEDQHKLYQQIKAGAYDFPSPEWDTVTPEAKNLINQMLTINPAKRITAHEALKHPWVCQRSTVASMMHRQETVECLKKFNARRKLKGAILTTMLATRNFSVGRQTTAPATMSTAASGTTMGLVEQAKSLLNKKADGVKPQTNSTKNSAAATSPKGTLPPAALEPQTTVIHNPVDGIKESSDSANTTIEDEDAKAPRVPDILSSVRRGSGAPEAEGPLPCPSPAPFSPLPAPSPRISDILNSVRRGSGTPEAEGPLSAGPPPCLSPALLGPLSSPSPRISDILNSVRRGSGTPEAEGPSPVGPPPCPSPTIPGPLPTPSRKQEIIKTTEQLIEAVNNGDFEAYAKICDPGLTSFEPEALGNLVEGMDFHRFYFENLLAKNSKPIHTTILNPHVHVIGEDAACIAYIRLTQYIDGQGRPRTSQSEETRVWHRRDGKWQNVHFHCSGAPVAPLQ

[16] = molecular target: Serine/threonine-protein kinase 26 (Homo sapiens) (UniProt Q9P289); experiment: Inhibition of MST4 Lys2 labeling site in human Huh-7 cell lysate at 1 uM by KiNativ Profiling analysis relative to control; type: subcellular
[17] = molecular target: Cyclin-dependent kinase 12 (Homo sapiens) (UniProt Q9NYV4); experiment: Inhibition of CRK7 Lys2 labeling site in human Huh-7 cells at 1 uM by KiNativ Profiling analysis relative to control; type: cell-based

SMILES: CCN1CCN(Cc2ccc(NC(=O)c3ccc(C)c(/C=C/c4cnc5[nH]ccc5c4OC)c3)cc2C(F)(F)F)CC1
- inhibition [1]: 100%
- residual activity [2]: 1.4%
- residual activity [3]: 1.4%
- residual activity [4]: 100%
- inhibition [5]: 1.4%
- inhibition [6]: 100%

SMILES: CCN1CCN(Cc2ccc(NC(=O)c3ccc(C)c(Oc4ccnc5[nH]ccc45)c3)cc2C(F)(F)F)CC1
- inhibition [7]: inactive
- percent of control [8]: 0.35%
- inhibition [9]: 30.1%
- inhibition [10]: 5.8%
- inhibition [11]: -4.5%
- inhibition [12]: 14%

SMILES: CNc1cc(Oc2cc(C(=O)Nc3cc(N4CCN(C)CC4)cc(C(F)(F)F)c3)ccc2C)ncn1
- inhibition [13]: 64.8%
- inhibition [14]: 14.7%
- inhibition [15]: 20.3%
- inhibition [16]: -0.3%
- inhibition [17]: 40.3%
